Reference: publication PMC8201479, “Trisubstituted Pyrrolinones as Small-Molecule Inhibitors Disrupting the Protein–RNA Interaction of LIN28 and Let-7” (ACS Medicinal Chemistry Letters, 2021)
Where two headings read alike, the source gives them in different places.

Tests used:
LIN28–let-7 interaction [1] = biological target: T1, LIN28–let-7 interaction (Homo sapiens, UniProt Q9H9Z2); experiment: Fluorescence polarization (FP) assay, LIN28A (residues 16–187) and FAM-labeled preE-let-7f-1; format: binding
T1 construct: Purified LIN28A (residues 16–187) was incubated at a concentration of 200 nM; His-tag (cleaved yes); made in house; host or cells: Escherichia coli BL21(DE3)
T1 sequence (Q9H9Z2 16-187): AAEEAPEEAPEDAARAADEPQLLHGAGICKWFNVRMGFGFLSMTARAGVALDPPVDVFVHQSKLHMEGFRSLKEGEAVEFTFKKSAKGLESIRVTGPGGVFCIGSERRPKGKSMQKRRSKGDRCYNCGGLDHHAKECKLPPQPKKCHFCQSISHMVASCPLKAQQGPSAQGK
Procedure: Protein expression and purification.
19 vector and overexpressed in Escherichia coli BL21(DE3). The culture was incubated at 37 °C until
the absorbance at 600 nm (OD600) reached 0.5–0.7. IPTG was added to a final concentration of
300 µM, and overnight induction was performed at 18 °C. Cells were harvested by centrifugation.
The bacterial pellet was resuspended in lysis buffer (50 mM NaH2PO4, pH 7.5, 300 mM NaCl,
0.1 mM PMSF) and lysed using a Microfluidizer (Microfluidics) . A fresh portion of 0.1 mM PMSF
and Triton X-100 (1% final concentration) were added. The lysate was cleared by ultra centrifugation
at 30000 xg and 4 °C for 1 h. The protein purification was performed using immobilized nickel
300 mM NaCl and 5 % glycerol. Gradient elution was performed with a maximum of 0.5 M imidazole.
Subsequently, the affinity tag was cleaved using His6 -TEV-protease and the protease and unspecific
binders were eliminated by a second nickel affinity chromatography. After protein concentration
LIN28A containing fractions were concentrated and applied to a High Load Superdex 75 pg 16/600
column (GE Healthcare) with gel-filtration buffer (30 mM NaH2PO4, pH 7.5, 50 mM NaCl, 5%
glycerol, 2 mM β-ME). The purified protein was concentrated and stored at -80 °C until further
Fluorescence polarization. The fluorescence polarization assay was performed in black low volume
IC50 measurements were performed with three technical
minutes with compound concentrations ranging from 0.3 nM to 100 µM in FP assay buffer (20 mM
Tris, pH 7, 100 mM NaCl, 5 mM MgCl2, 2 mM glutathione (reduced), 0.1 % NP-40). Subsequently,
FAM-labeled preE-let-7f-1 (mus musculus) ([…]-
FAM, synthesized by IDT) was added to a final concentration of 2 nM. Fluorescence polarization
was detected after incubation at room temperature using a TECAN Spark plate reader. Half maximal
inhibitory concentrations (IC50) were determined using GraphPad Prism 7. […]

LIN28–let-7 interaction [2] = biological target: T1, LIN28–let-7 interaction; experiment: as above; format: binding; conditions: for IC50: Table 1, quadruplicate, eight concentrations, read-out: IC50, LIN28–let-7 inhibitory activity; for FP, Average (mP): raw data Table S3, four replicates
[3] = text and figures, C-labels = library sample, PH-labels = in-house resynthesized, read-out: IC50 in the FP assay
[4] = starting from a maximum concentration of 60 μM
[5] = starting from 30 μM, extrapolated based on the observed IC50 curves
[6] = starting from a maximum of 60 μM, extrapolated based on the observed IC50 curves

FP, Average (mP) (LIN28–let-7 interaction [2]; 0.041 μM compound)	FP, Average (mP) (LIN28–let-7 interaction [2]; 0.123 μM compound)	FP, Average (mP) (LIN28–let-7 interaction [2]; 0.368 μM compound)	FP, Average (mP) (LIN28–let-7 interaction [2]; 1.103 μM compound)	FP, Average (mP) (LIN28–let-7 interaction [2]; 3.125 μM compound)	FP, Average (mP) (LIN28–let-7 interaction [2]; 9.375 μM compound)	FP, Average (mP) (LIN28–let-7 interaction [2]; 29.688 μM compound)	FP, Average (mP) (LIN28–let-7 interaction [2]; 59.375 μM compound)	IC50 (LIN28–let-7 interaction [2]; [5])	SMILES	other results
117.25 mP	110.90 mP	115.50 mP	113.50 mP	89.73 mP	88.63 mP	73.03 mP	53.40 mP		O=C(C1=C(O)C(=O)N(c2ccc(O)c(C(=O)O)c2)C1c1ccc(-c2nccs2)cc1)c1ccccc1 (stereo not shown) [C879/PH-34]	IC50 (LIN28–let-7 interaction [1]; [3]): < 30 µM; IC50 (LIN28–let-7 interaction [2]; [4]): 12 µM
111.50 mP	113.50 mP	115.75 mP	112.00 mP	91.63 mP	55.98 mP	41.63 mP	45.53 mP		O=C(O)c1ccc(C2C(C(=O)c3ccccc3)=C(O)C(=O)N2c2ccc(O)c(C(=O)O)c2)cc1 (stereo not shown) [C880/PH-39]	IC50 (LIN28–let-7 interaction [1]; [3]): < 30 µM; IC50 (LIN28–let-7 interaction [2]; [4]): 6 µM
								> 100 µM	O=C(O)c1ccc(C2C(C(=O)c3ccccc3)=C(O)C(=O)N2c2cccc(C(=O)O)c2)cc1 (stereo not shown) [C881]	
								> 100 µM	O=C(O)c1ccc(C2C(C(=O)c3ccccc3)=C(O)C(=O)N2c2ccc(C(=O)O)cc2)cc1 (stereo not shown) [C882]	
								> 100 µM	COc1ccc(C(=O)C2=C(O)C(=O)N(c3cccc(C(=O)O)c3)C2c2ccc([N+](=O)[O-])cc2)cc1 (stereo not shown) [C883]	
								> 100 µM	COc1ccc(C(=O)C2=C(O)C(=O)N(c3ccc(C(=O)O)cc3)C2c2ccc([N+](=O)[O-])cc2)cc1 (stereo not shown) [C884]	
								30 to 40 µM	COc1ccc(C(=O)C2=C(O)C(=O)N(c3ccc(O)c(C(=O)O)c3)C2c2ccc(C(=O)O)cc2)cc1 (stereo not shown) [C885]	
								> 100 µM	COc1ccc(C(=O)C2=C(O)C(=O)N(c3cccc(C(=O)O)c3)C2c2ccc(C(=O)O)cc2)cc1 (stereo not shown) [C886]	
								> 100 µM	COc1ccc(C(=O)C2=C(O)C(=O)N(c3ccc(C(=O)O)cc3)C2c2ccc(C(=O)O)cc2)cc1 (stereo not shown) [C887]	
								> 100 µM	COc1ccc(C(=O)C2=C(O)C(=O)N(c3cccc(-c4nnn[nH]4)c3)C2c2ccc(C(=O)O)cc2)cc1 (stereo not shown) [C888]	
								> 100 µM	O=C(O)c1cccc(N2C(=O)C(O)=C(C(=O)c3ccc(Br)cc3)C2c2ccc([N+](=O)[O-])cc2)c1 (stereo not shown) [C891]	
								> 100 µM	O=C(C1=C(O)C(=O)N(c2cccc(-c3nnn[nH]3)c2)C1c1ccc([N+](=O)[O-])cc1)c1ccc(Br)cc1 (stereo not shown) [C892]	
								30 to 40 µM	O=C(O)c1ccc(C2C(C(=O)c3ccc(Br)cc3)=C(O)C(=O)N2c2ccc(O)c(C(=O)O)c2)cc1 (stereo not shown) [C893]	
								> 100 µM	O=C(O)c1ccc(C2C(C(=O)c3ccc(Br)cc3)=C(O)C(=O)N2c2cccc(C(=O)O)c2)cc1 (stereo not shown) [C894]	
								> 100 µM	O=C(O)c1ccc(C2C(C(=O)c3ccc(Br)cc3)=C(O)C(=O)N2c2ccc(C(=O)O)cc2)cc1 (stereo not shown) [C895]	
								> 100 µM	O=C(O)c1ccc(C2C(C(=O)c3ccc(Br)cc3)=C(O)C(=O)N2c2cccc(-c3nnn[nH]3)c2)cc1 (stereo not shown) [C896]	
								30 to 40 µM	O=C(O)c1cccc(N2C(=O)C(O)=C(C(=O)c3ccccc3)C2c2ccc(-c3nccs3)cc2)c1 (stereo not shown) [C897]	
								> 100 µM	O=C(C1=C(O)C(=O)N(c2cccc(-c3nnn[nH]3)c2)C1c1ccc(-c2nccs2)cc1)c1ccccc1 (stereo not shown) [C898]	
									O=C(O)c1ccc(N2C(=O)C(O)=C(C(=O)c3ccc(Br)cc3)C2c2ccc(-c3nccs3)cc2)cc1 (stereo not shown) [C899]	IC50 (LIN28–let-7 interaction [1]): > 100 µM
								> 100 µM	COc1ccc(C(=O)C2=C(O)C(=O)N(c3cccc(C(=O)O)c3)C2c2ccc(-c3nccs3)cc2)cc1 (stereo not shown) [C900]	
								> 100 µM	COc1ccc(C(=O)C2=C(O)C(=O)N(c3cccc(-c4nnn[nH]4)c3)C2c2ccc(-c3nccs3)cc2)cc1 (stereo not shown) [C901]	
110.75 mP	116.25 mP	115.75 mP	116.25 mP	107.00 mP	111.25 mP	107.25 mP	98.68 mP		O=C(C1=C(O)C(=O)N(c2ccc(C(=O)O)c(O)c2)C1c1ccc(-c2nccs2)cc1)c1ccc(Br)cc1 (stereo not shown) [PH-30]	IC50 (LIN28–let-7 interaction [2]; [6]): > 100 µM
115.25 mP	112.75 mP	116.50 mP	109.50 mP	110.25 mP	104.00 mP	104.65 mP	93.48 mP		O=C(C1=C(O)C(=O)N(c2ccc(O)cc2)C1c1ccc(-c2nccs2)cc1)c1ccc(Br)cc1 (stereo not shown) [PH-35]	IC50 (LIN28–let-7 interaction [2]; [6]): > 100 µM
115.00 mP	116.25 mP	113.50 mP	112.00 mP	104.83 mP	108.50 mP	96.03 mP	79.35 mP		O=C(O)c1ccc(C2C(C(=O)c3ccccc3)=C(O)C(=O)N2c2ccc(O)cc2)cc1 (stereo not shown) [PH-36]	activity in the FP assay (LIN28–let-7 interaction [1]): inactive; IC50 (LIN28–let-7 interaction [2]; [6]): > 100 µM
113.25 mP	106.48 mP	115.75 mP	111.25 mP	111.50 mP	95.58 mP	86.53 mP	71.50 mP		O=C(C1=C(O)C(=O)N(c2ccc(O)c([N+](=O)[O-])c2)C1c1ccc(-c2nccs2)cc1)c1ccccc1 (stereo not shown) [PH-37]	IC50 (LIN28–let-7 interaction [2]; [4]): 41 µM
113.00 mP	113.25 mP	117.75 mP	113.25 mP	101.00 mP	86.53 mP	50.30 mP	49.00 mP		O=C(O)c1ccc(C2C(C(=O)c3ccccc3)=C(O)C(=O)N2c2ccc(C(=O)O)c(O)c2)cc1 (stereo not shown) [PH-38]	IC50 (LIN28–let-7 interaction [2]; [4]): 16 µM
110.50 mP	109.50 mP	109.75 mP	98.88 mP	79.00 mP	55.18 mP	37.25 mP	33.68 mP		O=C(C1=C(O)C(=O)N(c2ccc(O)c(C(=O)O)c2)C1c1ccc(-c2nccs2)cc1)c1ccco1 (stereo not shown) [PH-43]	IC50 (LIN28–let-7 interaction [2]; [4]): 5 µM
96.70 mP	118.00 mP	115.00 mP	107.75 mP	92.95 mP	82.98 mP	63.53 mP	54.00 mP		COc1ccc(C(=O)C2=C(O)C(=O)N(c3ccc(O)c(C(=O)O)c3)C2c2ccc(-c3nccs3)cc2)cc1OC (stereo not shown) [PH-44]	IC50 (LIN28–let-7 interaction [2]; [4]): 12 µM
